For this assay, the system named is Foxp3+ Treg, CD8+ T cells, G-MDSC/neutrophils. The format is in vivo. To be noted: CTX treated vs only VTP. The method, then: • (i) Bacteriochlorophyll Derivatives—The Bchl derivatives and RGD-conjugates thereof were provided by Steba Biotech (Rehovot, Israel). […] Concentration was verified by spectrophotometric measurement. STL-7012 was provided as dipotassium salt. Working solution was prepared by dissolving STL-7012 K^+ salt in 5% mannitol solution (1 mg/ml). […] WST11 was supplied as a powder and kept in the dark at −20° C. Stock was prepared by dissolving WST11 in DDW containing 5% glucose and 0.67% mannitol, aliquoted and lyophilized. Working solution was reconstituted with DDW and the concentration of solution was confirmed spectrophotometrically. Alternatively, Clinical WST11 (batch: P00611, and 10-130611) was supplied as lyophilized formulation. Material was dissolved in 5% dextrose, aliquoted and stored at −20° C. […] Aliquots were thawed, diluted with saline to a desired concentration and used on the same day at a dose of 75 mg/kg. Cyclophosphamide (CTX, Endoxan®, Baxter Oncology Gmbh, Germany) was purchased from a local pharmacy. A stock solution of 20 mg/ml was prepared by dissolving in 0.9% NaCl, aliquoted and stored at −20° C. Aliquots were thawed, diluted with saline if needed to a desired concentration and used on the same day prepared at indicated doses. • (iii) Murine cell lines—Mammary luciferase (luc)-labeled 4T1 cell line (4T1-Luc) was a kind gift from Dr. Zvi Granot (Faculty of Medicine, The Hebrew University of Jerusalem, Israel); melanoma B16-F10 cell line was obtained from the American Type Culture Collection (ATCC, Manassas, Va.); bladder MB49 cell line was a kind gift from James Allison (MSKCC, New York, USA), and luc-labeled MB49-cell line was established using the murine stem cell virus (MSCV)-puromycin-luc-GFP construct (kindly provided by Dr. Emily Cheng, Human Oncology and Pathogenesis Program, MSKCC). 4T1 and MB49 cells were maintained in DMEM medium and B16-F10 cells in RPMI medium supplemented with 1 mmol/L sodium pyruvate, 10% fetal calf serum (FCS), 250 μg/ml hygromycin, 0.06 mg/ml penicillin and 0.1 mg/ml streptomycin. The cells were grown as monolayer at 37° C. in a humidified atmosphere (5% CO2, 95% air). • (iv) Murine tumor models—Female, Balb/c mice (6-8 week old) were grafted either subcutaneously (s.c.) into the right hind leg or orthotopically with 1×10^6 4T1 cells suspended in 50 or 1000 PBS. […] Whole body imaging of luciferase-transfected tumors and metastases were recorded five minutes following 75 mg Kg^−1 intraperitoneal (i.p.) injection of D-luciferin with respective filter sets. • (vi) PDT treatment protocol: 4T1-Luc cells were grafted in the mammary pad of Balb/c mice. […] Ablation of primary tumors was assessed every 7 days by imaging the tumor's luciferase-mediated bioluminescence signal, using IVIS.

Structures are written as SMILES.

With `CCC1c2cc3[n-]c(c(CC(=O)OC)c4nc(cc5[n-]c(cc(n2)C1C)c(C(C)=O)c5C)C(C)C4CCC(=O)[O-])c(C(=O)NCCS(=O)(=O)[O-])c3C.[K+].[K+].[Pd+2]` (stereo not shown) [WST11, Palladium 3^1-oxo-15-methoxycarbonylmethyl-rhodobacteriochlorin 13^1-(2-sulfoethyl) amide dipotassium salt], the “total cell numbers in draining lymph nodes and spleens after VTP” value is given as “decrease in cell counts”.

For the origin of these results see patent US11278555B2, “Combinational therapies for treatment of cancer comprising a bacteriochlorophyll derivative” (Yeda Research and Development Co. Ltd., priority 2016, dated 2022).
